Measured values: US8168680B2, “Cyclopentane heptan(ENE)OIC acid, 2-heteroarylalkenyl derivatives as therapeutic agents” (Allergan, Inc., priority 2004, dated 2012)

Assays:
Format in all cases: cell-based
[1] = molecular target: T1, hTP (Homo sapiens, UniProt P21731); assay: FLIPR calcium signal, HEK-293(EBNA) cells expressing hTP; conditions: recombinant human TP receptor, read-out: FUNCTIONAL DATA EC50 HTP
T1 construct: expressed in transfected cells; host or cells: HEK-293(EBNA)
T1 sequence (P21731 1-343): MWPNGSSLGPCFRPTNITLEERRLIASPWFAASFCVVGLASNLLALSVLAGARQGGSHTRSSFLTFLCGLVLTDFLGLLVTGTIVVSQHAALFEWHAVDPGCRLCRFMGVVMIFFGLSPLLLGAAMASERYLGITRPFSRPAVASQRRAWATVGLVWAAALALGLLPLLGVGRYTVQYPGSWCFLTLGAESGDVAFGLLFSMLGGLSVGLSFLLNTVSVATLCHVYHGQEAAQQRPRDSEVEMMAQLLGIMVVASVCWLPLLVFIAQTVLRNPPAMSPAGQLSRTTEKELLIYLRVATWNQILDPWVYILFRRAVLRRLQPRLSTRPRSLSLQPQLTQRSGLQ
Experimental: (§1) Methods for FLIPR™ Studies
(§2) HEK-293(EBNA) cells, stably expressing one type or subtype of recombinant human prostaglandin receptors (prostaglandin receptors expressed: hDP/Gqs5; hEP1; hEP2/Gqs5; hEP3A/Gqi5; hEP4/Gqs5; hFP; hIP; hTP), were cultured in 100 mm culture dishes in high-glucose DMEM medium containing 10% fetal bovine serum, 2 mM 1-glutamine, 250 μg/ml geneticin (G418) and 200 μg/ml hygromycin B as selection markers, and 100 units/ml penicillin G, 100 μg/ml streptomycin and 0.25 μg/ml amphotericin B.
(§3) (b) Calcium Signal Studies on the FLIPR™
(§4) Cells were seeded at a density of 5×10^4 cells per well in Biocoat® Poly-D-lysine-coated black-wall, clear-bottom 96-well plates (Becton-Dickinson) and allowed to attach overnight in an incubator at 37° C. Cells were then washed two times with HBSS-HEPES buffer (Hanks Balanced Salt Solution without bicarbonate and phenol red, 20 mM HEPES, pH 7.4) using a Denley Cellwash plate washer (Labsystems). After 45 minutes of dye-loading in the dark, using the calcium-sensitive dye Fluo-4 AM at a final concentration of 2 μM, plates were washed four times with HBSS-HEPES buffer to remove excess dye leaving 100 μl in each well. Plates were re-equilibrated to 37° C. for a few minutes.
(§5) Cells were excited with an Argon laser at 488 nm, and emission was measured through a 510-570 nm bandwidth emission filter (FLIPR™, Molecular Devices, Sunnyvale, Calif.). Drug solution was added in a 50 μl volume to each well to give the desired final concentration. The peak increase in fluorescence intensity was recorded for each well. On each plate, four wells each served as negative (HBSS-HEPES buffer) and positive controls (standard agonists: BW245C (hDP); PGE2 (hEP1; hEP2/Gqs5; hEP3A/Gqi5; hEP4/Gqs5); PGF2α (hFP); carbacyclin (hIP); U-46619 (hTP), depending on receptor). The peak fluorescence change in each drug-containing well was then expressed relative to the controls.
(§6) Compounds were tested in a high-throughput (HTS) or concentration-response (CoRe) format. […]

[2] = molecular target: T2, hFP (Homo sapiens, UniProt P43088); assay: FLIPR calcium signal, HEK-293(EBNA) cells expressing hFP; conditions: recombinant human FP receptor, read-out: FUNCTIONAL DATA EC50 HFP
T2 construct: expressed in transfected cells; host or cells: HEK-293(EBNA)
T2 sequence (P43088 whole entry): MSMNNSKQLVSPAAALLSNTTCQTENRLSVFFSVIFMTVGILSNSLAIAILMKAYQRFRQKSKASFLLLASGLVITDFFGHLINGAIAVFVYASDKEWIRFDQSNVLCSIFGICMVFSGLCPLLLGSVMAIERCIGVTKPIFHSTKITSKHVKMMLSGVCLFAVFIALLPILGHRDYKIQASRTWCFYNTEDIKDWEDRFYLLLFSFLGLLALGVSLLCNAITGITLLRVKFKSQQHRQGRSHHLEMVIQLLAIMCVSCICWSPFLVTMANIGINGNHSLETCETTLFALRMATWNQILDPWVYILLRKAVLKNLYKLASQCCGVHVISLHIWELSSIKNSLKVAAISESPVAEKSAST
Experimental: as §1, §2, §3, §4, §5
Compounds were tested in a high-throughput (HTS) or concentration-response (CoRe) format. In the HTS format, forty-four compounds per plate were examined in duplicates at a concentration of 10^−5 M. To generate concentration-response curves, four compounds per plate were tested in duplicates in a concentration range between 10^−5 and 10^−11 M. The duplicate values were averaged. In either, HTS or CoRe format each compound was tested on at least 3 separate plates using cells from different passages to give an n≧3.

[3] = molecular target: T3, hEP3A/Gqi5 (Homo sapiens, UniProt P43115); assay: FLIPR calcium signal, HEK-293(EBNA) cells expressing hEP3A/Gqi5; conditions: recombinant human EP3A/Gqi5, HEK-293(EBNA), read-out: FUNCTIONAL DATA EC50 HEP3A
T3 construct: expressed in transfected cells; host or cells: HEK-293(EBNA)
T3 sequence (P43115 1-390): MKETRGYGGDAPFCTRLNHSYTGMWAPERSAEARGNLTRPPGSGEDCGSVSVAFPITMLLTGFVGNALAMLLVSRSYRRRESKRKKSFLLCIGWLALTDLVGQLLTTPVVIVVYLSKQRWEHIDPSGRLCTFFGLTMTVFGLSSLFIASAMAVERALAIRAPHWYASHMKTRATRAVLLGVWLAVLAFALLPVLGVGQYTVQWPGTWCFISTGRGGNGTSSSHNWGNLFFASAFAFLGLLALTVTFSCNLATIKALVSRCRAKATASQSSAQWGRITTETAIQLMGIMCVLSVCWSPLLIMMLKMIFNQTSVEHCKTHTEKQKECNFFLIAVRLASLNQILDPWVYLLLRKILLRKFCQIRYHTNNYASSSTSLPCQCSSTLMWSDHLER
Experimental: as §1, §2, §3, §4, §5, §6

| EC50 [1] [nM] | EC50 [2] [nM] | EC50 [3] [nM] | Compound |
| --- | --- | --- | --- |
| > 10000 | > 10000 |  | C=C[C@@H]1CC(O)[C@H](C/C=C\CCCC(=O)OC)[C@H]1/C=C/[C@@H](O)CCc1cc(Br)c(C)s1 (single isomer, unassigned) [drawing 51] |
| 243 | 61 | 304 | C=C[C@@H]1CC(O)[C@H](C/C=C\CCCC(=O)O)[C@H]1/C=C/[C@@H](O)CCc1cc(Br)c(C)s1 (single isomer, unassigned) [drawing 47] |
|  | 1530 | 554 | C=C[C@@H]1CC(O)[C@H](C/C=C\CCCC(=O)O)[C@H]1/C=C/[C@@H](O)CCc1cc(Br)c(C)s1 (single isomer, unassigned) [drawing 48] |
| 1810 | 742 | 6010 | C=C[C@@H]1CC(O)[C@H](C/C=C\CCCC(=O)OC)[C@H]1/C=C/[C@@H](O)CCc1cc(Br)c(C)s1 (single isomer, unassigned) [drawing 49] |
|  | 43 |  | Cc1sc(CC[C@H](O)/C=C/[C@H]2[C@H](C)CC(O)[C@@H]2C/C=C\CCCC(=O)O)cc1Br (single isomer, unassigned) |
